These compounds were tested against PKC theta kinase (Homo sapiens, UniProt Q04759) (assay: PKC theta coupled-enzyme kinase assay (NADH consumption)). Settings: 240 μM ATP, 30° C.
Assay type: biochemical
Procedure: (§1) An assay buffer solution was prepared which consisted of 100 mM HEPES (pH 7.5), 10 mM MgCl2, 25 mM NaCl, 0.1 mM EDTA and 0.01% Brij. An enzyme buffer containing reagents to final assay concentrations of 0.00001% Triton X-100, 200 μg/mL Phosphatidylserine, 20 μg/mL Diacylglycerol, 360 μM NADH, 3 mM phosphoenolpyruvate, 70 μg/mL pyruvate kinase, 24 μg/mL lactate dehydrogenase, 2 mM DTT, 100 μM substrate peptide (ERMRPRKRQGSVRRRV (SEQ ID NO: 1)) and 18 nM PKC theta kinase was prepared in assay buffer. To 60 μL of this enzyme buffer, in a 384 well plate, was added 2 μL of VRT stock solution in DMSO. The mixture was allowed to equilibrate for 10 mins at 30° C. The enzyme reaction was initiated by the addition of 5 μL stock ATP solution prepared in assay buffer to a final assay concentration of 240 μM. Initial rate data was determined from the rate of change of absorbance at 340 nm (corresponding to stoichiometric consumption of NADH) using a Molecular Devices Spectramax plate reader (Sunnyvale, Calif.) over 15 mins at 30° C. For each Ki determination 12 data points covering the VRT concentration range of 0-20 μM were obtained in duplicate (DMSO stocks were prepared from an initial 10 mM VRT stock with subsequent 1:2 serial dilutions). Ki values were calculated from initial rate data by non-linear regression using the Prism software package (Prism 4.0a, Graphpad Software, San Diego, Calif.).

Sequence of PKC theta kinase (Q04759 whole entry): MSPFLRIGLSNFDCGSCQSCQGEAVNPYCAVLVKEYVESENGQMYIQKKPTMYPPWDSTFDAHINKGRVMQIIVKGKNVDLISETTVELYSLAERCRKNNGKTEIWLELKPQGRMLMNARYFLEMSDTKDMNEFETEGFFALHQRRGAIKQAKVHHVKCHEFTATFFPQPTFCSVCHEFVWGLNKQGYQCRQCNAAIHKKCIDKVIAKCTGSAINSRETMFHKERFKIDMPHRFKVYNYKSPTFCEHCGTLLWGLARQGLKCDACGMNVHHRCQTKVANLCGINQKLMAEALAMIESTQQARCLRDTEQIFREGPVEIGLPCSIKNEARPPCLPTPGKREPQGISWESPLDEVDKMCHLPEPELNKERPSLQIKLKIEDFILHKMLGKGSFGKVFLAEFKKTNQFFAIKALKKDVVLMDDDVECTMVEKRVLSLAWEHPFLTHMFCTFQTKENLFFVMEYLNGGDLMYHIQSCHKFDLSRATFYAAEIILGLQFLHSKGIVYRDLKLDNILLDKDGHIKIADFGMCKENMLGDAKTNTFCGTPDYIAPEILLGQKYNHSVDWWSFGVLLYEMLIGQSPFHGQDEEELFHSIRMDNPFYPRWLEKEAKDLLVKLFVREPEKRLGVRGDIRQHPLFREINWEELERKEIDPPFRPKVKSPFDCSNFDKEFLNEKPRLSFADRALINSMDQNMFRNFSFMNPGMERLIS

SMILES | Ki
CC(N)(CO)COc1ccc(C(F)(F)F)c(-c2n[nH]c3ncccc23)n1 (stereo not shown) [Compound 57] | > 700 nM
CN(CCO)c1ccc(C(F)(F)F)c(-c2n[nH]c3ncccc23)n1 [Compound 58] | > 700 nM
NC1CCC(Oc2ccc(C(F)(F)F)c(-c3n[nH]c4ncccc34)n2)CC1 (stereo not shown) [Compound 59] | > 700 nM
FC(F)(F)c1ccc(NCCN2CCCC2)nc1-c1n[nH]c2ncccc12 [Compound 60] | > 700 nM
N#CCNc1ccc(C(F)(F)F)c(-c2n[nH]c3ncccc23)n1 [Compound 62] | > 700 nM
FC(F)(F)c1ccc(NC2CNC2)nc1-c1n[nH]c2ncccc12 [Compound 63] | > 700 nM
Fc1ccc(NC2CNC2)nc1-c1n[nH]c2ncccc12 [Compound 64] | > 700 nM
FC(F)(F)c1ccc(NCC2CNC2)nc1-c1n[nH]c2ncccc12 [Compound 66] | > 700 nM
CCN1CCCC(Oc2ccc(C(F)(F)F)c(-c3n[nH]c4ncccc34)n2)C1 (stereo not shown) [Compound 69] | > 700 nM
FC(F)(F)c1ccc(NC2CN3CCC2CC3)nc1-c1n[nH]c2ncccc12 (stereo not shown) [Compound 71] | > 700 nM
CC(C)(C)[C@H](N)COc1ccc(C(F)(F)F)c(-c2n[nH]c3ncccc23)n1 [Compound 72] | > 700 nM
CC(CO)Nc1ccc(C(F)(F)F)c(-c2n[nH]c3ncccc23)n1 (stereo not shown) [Compound 73] | > 700 nM
FC(F)(F)c1ccc(OC[C@@H]2CCCN3CCCC[C@@H]23)nc1-c1n[nH]c2ncccc12 [Compound 74] | > 700 nM
OCCN(CCO)c1ccc(C(F)(F)F)c(-c2n[nH]c3ncccc23)n1 [Compound 76] | > 700 nM
OC[C@H](Cc1ccccc1)Nc1ccc(C(F)(F)F)c(-c2n[nH]c3ncccc23)n1 [Compound 77] | > 700 nM
OCc1cccc(Nc2ccc(C(F)(F)F)c(-c3n[nH]c4ncccc34)n2)c1 [Compound 78] | > 700 nM
CCC(CO)Nc1ccc(C(F)(F)F)c(-c2n[nH]c3ncccc23)n1 (stereo not shown) [Compound 80] | > 700 nM
O[C@H]1CC[C@H](Nc2ccc(C(F)(F)F)c(-c3n[nH]c4ncccc34)n2)CC1 [Compound 81] | > 700 nM
OCCNc1ccc(C(F)(F)F)c(-c2n[nH]c3ncccc23)n1 [Compound 82] | > 700 nM
CCC(O)CNc1ccc(C(F)(F)F)c(-c2n[nH]c3ncccc23)n1 (stereo not shown) [Compound 83] | > 700 nM
OC1CCCCC1Nc1ccc(C(F)(F)F)c(-c2n[nH]c3ncccc23)n1 (stereo not shown) [Compound 84] | > 700 nM
FC(F)(F)c1ccc(N[C@@H]2CCc3ccccc32)nc1-c1n[nH]c2ncccc12 [Compound 85] | > 700 nM
CC[C@H](CO)Nc1ccc(C(F)(F)F)c(-c2n[nH]c3ncccc23)n1 [Compound 86] | > 700 nM

More lines, now with the values ahead:

Ki | SMILES
> 700 nM | CN(C)C(C)(C)COc1ccc(C(F)(F)F)c(-c2n[nH]c3ncccc23)n1 [Compound 52]
> 700 nM | CC(O)CNc1ccc(C(F)(F)F)c(-c2n[nH]c3ncccc23)n1 (stereo not shown) [Compound 53]
> 700 nM | CC(C)(CN)COc1ccc(C(F)(F)F)c(-c2n[nH]c3ncccc23)n1 [Compound 54]
> 700 nM | CN1CCCC(COc2ccc(C(F)(F)F)c(-c3n[nH]c4ncccc34)n2)C1 (stereo not shown) [Compound 55]
> 700 nM | CCN1CCC(Oc2ccc(C(F)(F)F)c(-c3n[nH]c4ncccc34)n2)C1 (stereo not shown) [Compound 56]
< 50 nM | NC1CCCC(Nc2cccc(-c3n[nH]c4ncccc34)n2)C1 (stereo not shown) [Compound 61]
< 500 nM | CCC(CN)(CNc1ccc(C(F)(F)F)c(-c2n[nH]c3ncccc23)n1)c1ccccc1 (stereo not shown) [Compound 65]
< 50 nM | CC(C)CC1(CNc2ccc(C(F)(F)F)c(-c3n[nH]c4ncccc34)n2)CNC1 [Compound 67]
< 50 nM | CC(C)CC1(CNc2ccc(F)c(-c3n[nH]c4ncccc34)n2)CNC1 [Compound 68]
< 500 nM | Nc1cc(Cl)cc(Nc2ccc(C(F)(F)F)c(-c3n[nH]c4ncccc34)n2)c1 [Compound 70]
< 500 nM | CN(CCC#N)c1ccc(C(F)(F)F)c(-c2n[nH]c3ncccc23)n1 [Compound 75]
< 500 nM | OC[C@H](Nc1ccc(C(F)(F)F)c(-c2n[nH]c3ncccc23)n1)c1ccccc1 [Compound 79]

The compounds below were run against PKC Delta (Homo sapiens, UniProt Q05655) (assay: PKC delta coupled-enzyme kinase assay (NADH consumption)). Settings: 240 μM ATP, 30° C.
Sequence of PKC Delta (Q05655 whole entry): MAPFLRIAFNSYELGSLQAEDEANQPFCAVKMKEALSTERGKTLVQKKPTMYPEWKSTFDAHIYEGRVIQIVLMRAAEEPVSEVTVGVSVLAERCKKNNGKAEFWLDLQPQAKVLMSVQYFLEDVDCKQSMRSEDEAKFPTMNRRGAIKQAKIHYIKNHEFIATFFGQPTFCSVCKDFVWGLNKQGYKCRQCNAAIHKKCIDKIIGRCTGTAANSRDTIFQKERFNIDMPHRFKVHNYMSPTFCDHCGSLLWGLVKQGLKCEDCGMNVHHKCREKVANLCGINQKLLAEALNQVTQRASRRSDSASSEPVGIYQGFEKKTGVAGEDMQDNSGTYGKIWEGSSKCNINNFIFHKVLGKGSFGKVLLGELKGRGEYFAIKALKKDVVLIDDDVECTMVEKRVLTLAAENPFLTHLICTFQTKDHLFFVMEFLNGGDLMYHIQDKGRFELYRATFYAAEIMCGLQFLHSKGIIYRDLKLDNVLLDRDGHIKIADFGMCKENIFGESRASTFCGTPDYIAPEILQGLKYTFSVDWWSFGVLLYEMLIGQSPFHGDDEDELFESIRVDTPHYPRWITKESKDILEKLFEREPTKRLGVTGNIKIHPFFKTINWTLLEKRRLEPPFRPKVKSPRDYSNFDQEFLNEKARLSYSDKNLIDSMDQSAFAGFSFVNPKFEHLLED
Assay type: biochemical
Procedure: [The source words this procedure for another target and reports this target under the same test.] as §1

SMILES | Ki
CC(N)(CO)COc1ccc(C(F)(F)F)c(-c2n[nH]c3ncccc23)n1 (stereo not shown) [Compound 57] | > 700 nM
CN(CCO)c1ccc(C(F)(F)F)c(-c2n[nH]c3ncccc23)n1 [Compound 58] | > 700 nM
NC1CCC(Oc2ccc(C(F)(F)F)c(-c3n[nH]c4ncccc34)n2)CC1 (stereo not shown) [Compound 59] | > 700 nM
FC(F)(F)c1ccc(NCCN2CCCC2)nc1-c1n[nH]c2ncccc12 [Compound 60] | > 700 nM
N#CCNc1ccc(C(F)(F)F)c(-c2n[nH]c3ncccc23)n1 [Compound 62] | > 700 nM
FC(F)(F)c1ccc(NC2CNC2)nc1-c1n[nH]c2ncccc12 [Compound 63] | > 700 nM
Fc1ccc(NC2CNC2)nc1-c1n[nH]c2ncccc12 [Compound 64] | > 700 nM
FC(F)(F)c1ccc(NCC2CNC2)nc1-c1n[nH]c2ncccc12 [Compound 66] | > 700 nM
CCN1CCCC(Oc2ccc(C(F)(F)F)c(-c3n[nH]c4ncccc34)n2)C1 (stereo not shown) [Compound 69] | > 700 nM
FC(F)(F)c1ccc(NC2CN3CCC2CC3)nc1-c1n[nH]c2ncccc12 (stereo not shown) [Compound 71] | > 700 nM
CC(C)(C)[C@H](N)COc1ccc(C(F)(F)F)c(-c2n[nH]c3ncccc23)n1 [Compound 72] | > 700 nM
CC(CO)Nc1ccc(C(F)(F)F)c(-c2n[nH]c3ncccc23)n1 (stereo not shown) [Compound 73] | > 700 nM
FC(F)(F)c1ccc(OC[C@@H]2CCCN3CCCC[C@@H]23)nc1-c1n[nH]c2ncccc12 [Compound 74] | > 700 nM
OCCN(CCO)c1ccc(C(F)(F)F)c(-c2n[nH]c3ncccc23)n1 [Compound 76] | > 700 nM
OC[C@H](Cc1ccccc1)Nc1ccc(C(F)(F)F)c(-c2n[nH]c3ncccc23)n1 [Compound 77] | > 700 nM
OCc1cccc(Nc2ccc(C(F)(F)F)c(-c3n[nH]c4ncccc34)n2)c1 [Compound 78] | > 700 nM
CCC(CO)Nc1ccc(C(F)(F)F)c(-c2n[nH]c3ncccc23)n1 (stereo not shown) [Compound 80] | > 700 nM
O[C@H]1CC[C@H](Nc2ccc(C(F)(F)F)c(-c3n[nH]c4ncccc34)n2)CC1 [Compound 81] | > 700 nM
OCCNc1ccc(C(F)(F)F)c(-c2n[nH]c3ncccc23)n1 [Compound 82] | > 700 nM
CCC(O)CNc1ccc(C(F)(F)F)c(-c2n[nH]c3ncccc23)n1 (stereo not shown) [Compound 83] | > 700 nM
OC1CCCCC1Nc1ccc(C(F)(F)F)c(-c2n[nH]c3ncccc23)n1 (stereo not shown) [Compound 84] | > 700 nM
FC(F)(F)c1ccc(N[C@@H]2CCc3ccccc32)nc1-c1n[nH]c2ncccc12 [Compound 85] | > 700 nM
CC[C@H](CO)Nc1ccc(C(F)(F)F)c(-c2n[nH]c3ncccc23)n1 [Compound 86] | > 700 nM

The next lines start with the values.

Ki | SMILES
> 700 nM | CN(C)C(C)(C)COc1ccc(C(F)(F)F)c(-c2n[nH]c3ncccc23)n1 [Compound 52]
> 700 nM | CC(O)CNc1ccc(C(F)(F)F)c(-c2n[nH]c3ncccc23)n1 (stereo not shown) [Compound 53]
> 700 nM | CC(C)(CN)COc1ccc(C(F)(F)F)c(-c2n[nH]c3ncccc23)n1 [Compound 54]
> 700 nM | CN1CCCC(COc2ccc(C(F)(F)F)c(-c3n[nH]c4ncccc34)n2)C1 (stereo not shown) [Compound 55]
> 700 nM | CCN1CCC(Oc2ccc(C(F)(F)F)c(-c3n[nH]c4ncccc34)n2)C1 (stereo not shown) [Compound 56]
< 50 nM | NC1CCCC(Nc2cccc(-c3n[nH]c4ncccc34)n2)C1 (stereo not shown) [Compound 61]
< 500 nM | CCC(CN)(CNc1ccc(C(F)(F)F)c(-c2n[nH]c3ncccc23)n1)c1ccccc1 (stereo not shown) [Compound 65]
< 50 nM | CC(C)CC1(CNc2ccc(C(F)(F)F)c(-c3n[nH]c4ncccc34)n2)CNC1 [Compound 67]
< 50 nM | CC(C)CC1(CNc2ccc(F)c(-c3n[nH]c4ncccc34)n2)CNC1 [Compound 68]
< 500 nM | Nc1cc(Cl)cc(Nc2ccc(C(F)(F)F)c(-c3n[nH]c4ncccc34)n2)c1 [Compound 70]
< 500 nM | CN(CCC#N)c1ccc(C(F)(F)F)c(-c2n[nH]c3ncccc23)n1 [Compound 75]
< 500 nM | OC[C@H](Nc1ccc(C(F)(F)F)c(-c2n[nH]c3ncccc23)n1)c1ccccc1 [Compound 79]

Reference: patent publication US9029546B2, “Pyrazolopyridine kinase inhibitors” (Vertex Pharmaceuticals Incorporated, priority 2008, dated 2015)
